In US4248863A, “Antibiotics saframycins A, B, C, D and E and process for producing the same” (priority 1977, dated 1981):
≈ marks a conversion by molar mass, not a printed value.

Assays:
[1] = system: Staphylococcus aureus 209P; assay: Antimicrobial spectrum, MIC (Table 4); assay type: cell-based; conditions: Staphylococcus aureus, 209P; 1% glucose nutrient agar, 37° C., 24 or 48 hours; read-out: MIC
[2] = system: Staphylococcus aureus Smith; assay: Antimicrobial spectrum, MIC (Table 4); assay type: cell-based; conditions: Staphylococcus aureus; 1% glucose nutrient agar, 37° C., 24 or 48 hours; read-out: MIC
[3] = system: Staphylococcus albus; assay: Antimicrobial spectrum, MIC (Table 4); assay type: cell-based; conditions: Staphylococcus; 1% glucose nutrient agar, 37° C., 24 or 48 hours; read-out: MIC
[4] = system: Staphylococcus citreus; assay: Antimicrobial spectrum, MIC (Table 4); assay type: cell-based; conditions: Staphylococcus; 1% glucose nutrient agar, 37° C., 24 or 48 hours; read-out: MIC
[5] = system: Streptococcus faecalis; assay: Antimicrobial spectrum, MIC (Table 4); assay type: cell-based; conditions: Enterococcus faecalis; 1% glucose nutrient agar, 37° C., 24 or 48 hours; read-out: MIC
[6] = system: Streptococcus pyogenes; assay: Antimicrobial spectrum, MIC (Table 4); assay type: cell-based; conditions: Streptococcus pyogenes; blood agar, 37° C., 24 or 48 hours; read-out: MIC
[7] = system: Streptococcus pyogenes 090R; assay: Antimicrobial spectrum, MIC (Table 4); assay type: cell-based; conditions: Streptococcus pyogenes, 090R; blood agar, 37° C., 24 or 48 hours; read-out: MIC
[8] = system: Staphylococcus salivarius; assay: Antimicrobial spectrum, MIC (Table 4); assay type: cell-based; conditions: Staphylococcus; 1% glucose nutrient agar, 37° C., 24 or 48 hours; read-out: MIC
[9] = system: Micrococcus luteus; assay: Antimicrobial spectrum, MIC (Table 4); assay type: cell-based; conditions: Micrococcus luteus; 1% glucose nutrient agar, 37° C., 24 or 48 hours; read-out: MIC
[10] = system: Bacillus subtilis; assay: Antimicrobial spectrum, MIC (Table 4); assay type: cell-based; conditions: Bacillus subtilis; 1% glucose nutrient agar, 37° C., 24 or 48 hours; read-out: MIC
[11] = system: Bacillus cereus; assay: Antimicrobial spectrum, MIC (Table 4); assay type: cell-based; conditions: Bacillus cereus; 1% glucose nutrient agar, 37° C., 24 or 48 hours; read-out: MIC
[12] = system: Corynebacterium dephtheriae; assay: Antimicrobial spectrum, MIC (Table 4); assay type: cell-based; conditions: Corynebacterium; 1% glucose nutrient agar, 37° C., 24 or 48 hours; read-out: MIC
[13] = system: Corynebacterium xerosis; assay: Antimicrobial spectrum, MIC (Table 4); assay type: cell-based; conditions: Corynebacterium xerosis; 1% glucose nutrient agar, 37° C., 24 or 48 hours; read-out: MIC
[14] = system: Mycobacterium sp. 607; assay: Antimicrobial spectrum, MIC (Table 4); assay type: cell-based; conditions: Mycobacterium, SP.607; 3% glycerol nutrient agar for acid-fast bacteria, 37° C., 24 or 48 hours; read-out: MIC
[15] = system: Mycobacterium phlei; assay: Antimicrobial spectrum, MIC (Table 4); assay type: cell-based; conditions: Mycolicibacterium phlei; 3% glycerol nutrient agar for acid-fast bacteria, 37° C., 24 or 48 hours; read-out: MIC
[16] = system: Mycobacterium avium; assay: Antimicrobial spectrum, MIC (Table 4); assay type: cell-based; conditions: Mycobacterium avium; 3% glycerol nutrient agar for acid-fast bacteria, 37° C., 24 or 48 hours; read-out: MIC
[17] = system: Nocardia asteroides; assay: Antimicrobial spectrum, MIC (Table 4); assay type: cell-based; conditions: Nocardia asteroides; 37° C., 24 or 48 hours; read-out: MIC
[18] = system: Escherichia coli; assay: Antimicrobial spectrum, MIC (Table 4); assay type: cell-based; conditions: Escherichia coli; 1% glucose nutrient agar, 37° C., 24 or 48 hours; read-out: MIC
[19] = system: Salmonella typhimurium; assay: Antimicrobial spectrum, MIC (Table 4); assay type: cell-based; conditions: Salmonella enterica, TYPHIMURIUM; 1% glucose nutrient agar, 37° C., 24 or 48 hours; read-out: MIC
[20] = system: Shigella dysenteriae Shiga; assay: microbe, parasite or virus in culture; assay type: cell-based; conditions: Shigella dysenteriae
[21] = system: Klebsiella pneumoniae; assay: Antimicrobial spectrum, MIC (Table 4); assay type: cell-based; conditions: Klebsiella pneumoniae; 1% glucose nutrient agar, 37° C., 24 or 48 hours; read-out: MIC
[22] = system: Brucella abortus; assay: microbe, parasite or virus in culture; assay type: cell-based; conditions: Brucella abortus
[23] = system: Serratia marcescens; assay: Antimicrobial spectrum, MIC (Table 4); assay type: cell-based; conditions: Serratia marcescens; 1% glucose nutrient agar, 37° C., 24 or 48 hours; read-out: MIC
[24] = system: Pseudomonas aeruginosa; assay: Antimicrobial spectrum, MIC (Table 4); assay type: cell-based; conditions: Pseudomonas aeruginosa; 1% glucose nutrient agar, 37° C., 24 or 48 hours; read-out: MIC
[25] = system: Ehrlich ascites tumor; assay: Activity against Ehrlich ascites tumor in DDY mice; assay type: in vivo; conditions: 1×10^5 cells, initiated 24 hours after implantation, 4 days
[26] = system: mouse lymphocytic leukemia L1210; assay: Effect on mouse lymphocytic leukemia L1210 in vivo; conditions: DBF1 mice, 1×10^5 cells intraperitoneal; 1.5 mg/kg daily for 2 days intraperitoneal, started 3 hours after implantation
Protocol: When DDY mice were implanted with 1×10^5 cells of Ehrlich ascites tumor and daily intraperitoneal treatment of saframycin A at a dose of 0.5 mg/kg was initiated 24 hours after tumor implantation for 4 days, 30% of mice were cured and survived more than 30 days. With a dose of 1.0 mg/kg, 60% of mice was cured. The effects of saframycin A by intraperitoneal treatment on mouse lymphocytic leukemia L1210 and lymphoid leukemia P388 were studied with DBF1 mice. […] With P388 tumor, the inoculum size of 1×10^6 cells was employed and the treatment was initiated after 24 hours. Saframycin A at a daily dose of 0.75 mg/kg for 10 days produced T/C of 219%. The effect of saframycin A was then studied against human tumors, two lines of uterine cervical carcinoma, melanoma, oat cell carcinoma and stomach carcinoma, heterotransplanted to nude mice.

[27] = system: uterine cervical carcinoma; assay: Effect against human tumors heterotransplanted to nude mice; assay type: in vivo, human tumor in nude mice; conditions: human tumor heterotransplanted to nude mice
[28] = system: stomach carcinoma; assay: as above; assay type: in vivo, human tumor in nude mice; conditions: human tumor heterotransplanted to nude mice
[29] = Toxicity in mice; conditions: mouse, in vivo
[30] = system: Mucor mucedo; assay: Antimicrobial spectrum, MIC (Table 4); conditions: Mucor mucedo, 48 h
[31] = system: Saccharomyces cerevisiae; assay: Antimicrobial spectrum, MIC (Table 4); conditions: Saccharomyces cerevisiae, 48 h
[32] = system: Rhodotorula glutinis; assay: Antimicrobial spectrum, MIC (Table 4); conditions: Rhodotorula glutinis, 48 h
[33] = system: Aspergillus niger; assay: Antimicrobial spectrum, MIC (Table 4); conditions: Aspergillus niger, 48 h
[34] = system: Aspergillus oryzae; assay: Antimicrobial spectrum, MIC (Table 4); conditions: Aspergillus oryzae, 48 h
[35] = system: Penicillium glaucum; assay: Antimicrobial spectrum, MIC (Table 4); conditions: Penicillium, 48 h
[36] = system: Trichophyton mentagrophytes; assay: Antimicrobial spectrum, MIC (Table 4); conditions: Trichophyton mentagrophytes, 72 h
[37] = system: Candida albicans; assay: Antimicrobial spectrum, MIC (Table 4); conditions: Candida albicans, 48 h

COC1=C(C)C(=O)C2=C(C1=O)C1C3CC4=C(C(=O)C(OC)=C(C)C4=O)C(CNC(=O)C(C)=O)N3C(C#N)C(C2)N1C (stereo not drawn) [saframycin A]
MIC [1]: 0.1 µg/mL (≈ 0.178 µM)
MIC [2]: 0.05 µg/mL (≈ 0.0889 µM)
MIC [3]: 0.1 µg/mL (≈ 0.178 µM)
MIC [4]: 0.1 µg/mL (≈ 0.178 µM)
MIC [5]: 6.25 µg/mL (≈ 11.1 µM)
MIC [6]: 0.78 µg/mL (≈ 1.39 µM)
MIC [7]: 6.25 µg/mL (≈ 11.1 µM)
MIC [8]: 6.25 µg/mL (≈ 11.1 µM)
MIC [9]: 0.05 µg/mL (≈ 0.0889 µM)
MIC [10]: 0.1 µg/mL (≈ 0.178 µM)
MIC [11]: 12.5 µg/mL (≈ 22.2 µM)
MIC [12]: < 0.003 µg/mL
MIC [13]: < 0.003 µg/mL
MIC [14]: 12.5 µg/mL (≈ 22.2 µM)
MIC [15]: 25 µg/mL (≈ 44.4 µM)
MIC [16]: 12.5 µg/mL (≈ 22.2 µM)
MIC [17]: 6.25 µg/mL (≈ 11.1 µM)
MIC [18]: 50 µg/mL (≈ 88.9 µM)
MIC [19]: 100 µg/mL (≈ 178 µM)
MIC [20]: 25 µg/mL (≈ 44.4 µM)
MIC [21]: 6.25 µg/mL (≈ 11.1 µM)
MIC [22]: 6.25 µg/mL (≈ 11.1 µM)
MIC [23]: > 100 µg/mL
MIC [24]: > 100 µg/mL
mice cured and survived more than 30 days ([25]; 0.5 mg/kg daily intraperitoneal): 30%
mice cured ([25]; 1.0 mg/kg daily intraperitoneal): 60%
T/C (survival period of treated group over survival period of control group) [26]: 183%
activity against cervical carcinoma [27]: selectively active on cervical carcinoma and stomach carcinoma producing the inhibition of tumor growth and significant histological changes in tumor tissue
activity against stomach carcinoma [28]: selectively active on cervical carcinoma and stomach carcinoma producing the inhibition of tumor growth and significant histological changes in tumor tissue
LD50 ([29]; ip): 40 mg/kg
LD50 ([29]; iv): 12 mg/kg
MIC [30]: > 100 µg/mL
MIC [31]: > 100 µg/mL
MIC [32]: > 100 µg/mL
MIC [33]: > 100 µg/mL
MIC [34]: > 100 µg/mL
MIC [35]: 50 µg/mL (≈ 88.9 µM)
MIC [36]: > 100 µg/mL
MIC [37]: > 100 µg/mL
